Experimental data reported in PMC10094600, “Enzymatic Synthesis of 2-Chloropurine Arabinonucleosides with Chiral Amino Acid Amides at the C6 Position and an Evaluation of Antiproliferative Activity In Vitro” (International Journal of Molecular Sciences, 2023).

target: T1, E. coli adenosine deaminase (Escherichia coli, UniProt P22333); test: inhibition of adenosine deamination, HPLC, Lineweaver-Burk; format: biochemical
T1 construct: gene add; recombinant
T1 sequence (P22333 1-333): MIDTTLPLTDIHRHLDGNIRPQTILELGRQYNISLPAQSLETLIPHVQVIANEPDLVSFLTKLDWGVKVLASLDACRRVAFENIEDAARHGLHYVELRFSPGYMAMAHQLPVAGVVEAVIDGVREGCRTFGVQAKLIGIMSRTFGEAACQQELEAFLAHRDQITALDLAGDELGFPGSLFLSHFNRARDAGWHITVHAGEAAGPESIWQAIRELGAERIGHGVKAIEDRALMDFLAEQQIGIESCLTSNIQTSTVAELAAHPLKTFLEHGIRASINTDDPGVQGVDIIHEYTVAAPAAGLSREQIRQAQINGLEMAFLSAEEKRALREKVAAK

Compound	Ki
NC(=O)[C@H](CO)Nc1nc(Cl)nc2c1ncn2[C@@H]1O[C@H](CO)[C@@H](O)[C@@H]1O [4b, 9-β-D-Arabinofuranosyl-2-chloro-6-(N^α-L-serinylamido)-purine]	1200 ± 200 µM
Nc1nc(Cl)nc2c1ncn2[C@@H]1O[C@H](CO)[C@@H](O)[C@@H]1O [compound 16, 6-Amino-2-chloro-9-beta-D-arabinofuranosyl-9H-purine]	130 ± 20 µM
Nc1nc(Cl)nc2c1ncn2[C@@H]1O[C@H](CO)[C@@H](O)[C@H]1O [compound 15, 2-chloradenosine]	78 ± 12 µM
